Measurements from publication PMC11123692, “Sugar-Based Surfactants: Effects of Structural Features on the Physicochemical Properties of Sugar Esters and Their Comparison to Commercial Octyl Glycosides” (Molecules, 2024).
Converted amounts (≈) assume the structure as drawn. “And” between values parts separate entries of the source, which are not always exact repeats. Identical values can stand only once. Like-named read-outs stand apart in the source and are kept apart here.

Key:
[1] = cited from earlier work
[2] = above its Tk; cited from earlier work
[3] = Equilibrium surface tension, Wilhelmy plate method (CMC, γcmc, Amin and derived quantities); assay type: physicochemical; conditions: for Amin: from Gibbs adsorption equation
Protocol: CMCs are determined from the inflections in the plots of equilibrium surface tension against the logarithm of the concentration. For the interested reader, the Gibbs-free energy of micellization, ΔGmic, the Gibbs-free energy of adsorption, ΔGads, and the efficiency of surfactant adsorption pC20 were calculated based on their definitions, as presented in Table 2.
The surface activity reflects the amphiphiles’ adsorption behavior on the air–aqueous solution interface. The surface tension (γ) was obtained using the Wilhelmy plate method with a K100 Processor Tensiometer (KRUSS, Hamburg, Germany). Both the critical micellar concentration (CMC) and equilibrium surface tension at the CMC (γcmc) were derived from the typical plot of surface tension (γ) against the logarithm of concentration (Log C). The surface excess (Γmax) and minimal area per molecule at the air–aqueous solution interface (Amin) at different temperatures were calculated from the Gibbs adsorption equation [3, 46]:(2) Γmax=−1/2.303RT(dγ/dlogc) and (3) Amin=10^20/NAΓmax where R is the ideal gas constant, 8.31 J∙mol^−1∙K^−1; T is the measuring temperature, K; γ is the surface tension, N/m; c is the concentration, mol.L^−1; Amin is the minimal area per molecule, Å^2, and NA is Avogadro’s number, 6.022·10^23 mol^−1.
For each molecule, several solutions of a wide range of concentrations were prepared. Before measuring, each solution was finely homogenized with the help of a magnetic stirring bar. The stirring time was fixed at 30 min in all cases. […] Then, measurements were performed once for each concentration, at the solution preparation’s temperature, with an uncertainty of ±1 °C.

[4] = Krafft temperature (Tk) by visual examination and DSC of molecule/water systems; assay type: physicochemical; conditions: in water; observation and DSC; average ± SD of at least two measurements
Excerpt: (§1) Water solubility reflects the ability of a particular molecule to dissolve and its interaction with water. To characterize the water solubility of most amphiphile molecules, especially the ionic surfactants, the Krafft point (Tk) is often used, referring to the critical temperature above which micelles form or the melting point of the hydrated solid surfactant. Two general approaches were used to measure the Tks of the molecules investigated herein: (1) a visual examination of the dissolution phenomenon for binary molecule/water systems, and (2) a quantitative measurement by using differential scanning calorimetry (DSC) analysis. The visual observation procedure is detailed below. We start with adding the molecule into 5–50 mL water, in a concentration range between 10^−2 mM and 10^3 mM (corresponding to a range of a surfactant mass concentration well below 20%), keeping the suspension under stirring for a certain time at room temperature (RT). Consequently, molecules can be classified into two major types: those soluble in water at RT and others insoluble at RT, with the solubility limit being called S (expressed in mM). The aspect of the sample, either transparent or turbid, is determined by direct visual examination. Tk determination with DSC is particularly applicable in the case of molecules insoluble at RT, for which a concentrated binary molecule/water mixture with a mass fraction of 20% of each molecule (C >> CMC in most cases) was prepared at 65 °C under stirring for 30 min to obtain a homogeneous system. These pre-homogenized aqueous systems were cooled and conserved in a refrigerator at 4 °C for a suitable period (>7 days), during which equilibrated hydrated crystals formed and precipitated. Then, for each molecule, about a 200–400 mg crystal sample was taken and put into the calorimeter cell. The first equilibrium phase was programmed at 4 °C for 1 h, followed by a slow heating stage from 4 °C to 65 °C at a rate of 0.5 °C/min. Tk was determined based on the location of the endothermic peak on the DSC curve, if any. All agitations were performed using a standard magnetic hotplate stirrer, MR 3001K (Heidolph Instruments, Schwabach, Germany). DSC curves were obtained from a commercial µDSC7 evo calorimeter (SETARAM Instrumentation, Caluire-et-Cuire, France). Tks are reported as the averages of at least two measurements as well as their standard deviations.

[5] = Water solubility limit by visual examination (transparent/turbid); assay type: physicochemical; conditions: water, water; for solubility: thermodynamic from solid, read-out: Solubility Limit (S/mM)
Excerpt: as §1, with “We start with adding the molecule into 5–50 mL water, in a concentration range between 10^−2 mM and 10^3 mM (corresponding to a range of a surfactant mass concentration well below 20%), keeping the suspension under stirring for a certain time at room temperature (RT).” left out

[6] = at 25 °C, mixture of α and β anomers

Row | SMILES | C20 ([3]; T = 25 °C) | pC20 ([3]; T = 25 °C) | ΔGads ([3]; T = 25 °C) | ΔGmic ([3]; T = 25 °C) | CMC ([3]; T = 25 °C (T > Tk)) | γcmc ([3]; T = 25 °C (T > Tk)) | Amin ([3]; T = 25 °C) | Tk (Krafft temperature) [4] | solubility ([5]; at RT) | other results
1 | CCCCCCCC(=O)O[C@H]1[C@H](O)[C@@H](CO)OC(O)[C@@H]1O (stereo partly drawn) [3-O-octanoyl-D-glucopyranose] |  |  |  |  |  |  |  |  |  | CMC ([1]; mixture of α and β anomers): 0.61 mM; CMC ([1]; ref 21): 1.6 mM
2 | CCCCCCCC(=O)OC[C@H]1O[C@@H](O)[C@H](O)[C@@H](O)[C@@H]1O [6-O-octanoyl-β-glucose] |  |  |  |  |  |  |  |  |  | CMC ([1]; ref 20): 18 mM; solubility limit [2]: 25 mg/mL and > 80 mM
3 | CCCCCCCC(=O)OC1O[C@H](CO)[C@@H](O)[C@H](O)[C@H]1O (stereo partly drawn) [D-glucosyl octanoate] |  |  |  |  |  |  |  |  |  | CMC [1, 6]: 19.1 mM
4 | CCCCCCOC(=O)[C@H]1O[C@H](OC)[C@H](O)[C@@H](O)[C@@H]1O [MeαGlc(C=O)OC6] | 5.9 mM | 2.2 | -5.9 kcal/mol | -3.6 kcal/mol | 55 ± 5 mM | 30.8 ± 0.8 mN/m | 39.2 ± 2.9 Å^2/molecule | <4 °C | ≤ 50 mM | 
5 | CCCCCCCCOC(=O)[C@H]1O[C@H](OC)[C@H](O)[C@@H](O)[C@@H]1O [MeαGlc(C=O)OC8, methyl octyl α-D-glucuronate] | 0.5 mM | 3.3 | -7.3 kcal/mol | -4.8 kcal/mol | 6 mM and 6 ± 0.5 mM | 29.2 ± 0.35 mN/m | 41 ± 1 Å^2/molecule | <4 °C | 15 to 20 mM (≈ 4810 to 6410 µg/mL) | 
6 | CCCCCCCCCCOC(=O)[C@H]1O[C@H](OC)[C@H](O)[C@@H](O)[C@@H]1O [MeαGlc(C=O)OC10] | 0.05 mM | 4.3 | -8.6 kcal/mol | -5.9 kcal/mol | 0.65 ± 0.5 mM | 28.1 ± 0.1 mN/m | 42.4 ± 2 Å^2/molecule | <4 °C | 0.5 to 0.75 mM (≈ 174 to 261 µg/mL) | 
7 | CCCCCCCCCCCCOC(=O)[C@H]1O[C@H](OC)[C@H](O)[C@@H](O)[C@@H]1O [MeαGlc(C=O)OC12] | 0.004 mM | 5.4 | -10.1 kcal/mol | -7.2 kcal/mol | 0.056 ± 0.004 mM | 28.3 ± 0.3 mN/m | 45.6 ± 5 Å^2/molecule | 22.1 ± 0.2 °C | 0.02 to 0.05 mM (≈ 7.53 to 18.8 µg/mL) | 
8 | CCCCCCCCOC(=O)[C@@H](O)[C@@H](O)[C@H](O)[C@@H](O)C=O [octyl D-glucuronate] |  |  |  |  |  |  |  |  |  | CMC [1, 6]: 10.7 mM; CMC ([1]; ref 17): 10.68 mM

More lines, main results first:

Row | C20 ([3]; T = 25 °C) | pC20 ([3]; T = 25 °C) | ΔGads ([3]; T = 25 °C) | ΔGmic ([3]; T = 25 °C) | CMC ([3]; T = 25 °C (T > Tk)) | γcmc ([3]; T = 25 °C (T > Tk)) | Amin ([3]; T = 25 °C) | Tk (Krafft temperature) [4] | solubility ([5]; at RT) | SMILES | other results
9 | 11.2 mM | 2.0 | -5.6 kcal/mol | -3.3 kcal/mol | 105 ± 5 mM | 31 ± 0.1 mN/m | 40.1 ± 0.3 Å^2/molecule | <4 °C | < 40 mM | CCCCCC(=O)OC[C@H]1O[C@H](OC)[C@H](O)[C@@H](O)[C@@H]1O [MeαGlcO(C=O)C5, Methyl 6-O-hexanoyl-α-D-glucopyranoside] | 
10 | 1.0 mM | 3.0 | -6.9 kcal/mol | -4.5 kcal/mol | 9.8 mM and 9.8 ± 0.76 mM | 29.5 ± 0.5 mN/m | 39 ± 2 Å^2/molecule | <4 °C | ≤ 10 mM | CCCCCCCC(=O)OC[C@H]1O[C@H](OC)[C@H](O)[C@@H](O)[C@@H]1O [MeαGlcO(C=O)C7, Methyl 6-O-octanoyl-α-D-glucopyranoside] | solubility ([5]; at T > Tk): < 10 mM
11 |  |  |  |  |  |  |  | 26.5 ± 0.2 °C |  | CCCCCCCCCC(=O)OC[C@H]1O[C@H](OC)[C@H](O)[C@@H](O)[C@@H]1O [MeαGlcO(C=O)C9, Methyl 6-O-decanoyl-α-D-glucopyranoside] | C20 ([3]; T = 30 °C): 0.08 mM; pC20 ([3]; T = 30 °C): 4.1; ΔGads ([3]; T = 30 °C): -8.4 kcal/mol; ΔGmic ([3]; T = 30 °C): -5.8 kcal/mol; CMC ([3]; T = 30 °C (T > Tk)): 0.92 ± 0.08 mM; γcmc ([3]; T = 30 °C (T > Tk)): 27.9 ± 0.05 mN/m; Amin ([3]; T = 30 °C): 41.8 ± 0.9 Å^2/molecule; Solubility Limit (S/mM) ([5]; at RT): insoluble; solubility ([5]; at T > Tk): ≤ 1 mM
12 |  |  |  |  |  |  |  | 42.9 ± 0.1 °C |  | CCCCCCCCCCCC(=O)OC[C@H]1O[C@H](OC)[C@H](O)[C@@H](O)[C@@H]1O [MeαGlcO(C=O)C11, Methyl 6-O-dodecanoyl-α-D-glucopyranoside] | C20 ([3]; T = 50 °C): 0.007 mM; pC20 ([3]; T = 50 °C): 5.1; ΔGads ([3]; T = 50 °C): -10.4 kcal/mol; ΔGmic ([3]; T = 50 °C): -7.7 kcal/mol; CMC ([3]; T = 50 °C (T > Tk)): 0.08 ± 0.005 mM; γcmc ([3]; T = 50 °C (T > Tk)): 26.7 ± 0.25 mN/m; Amin ([3]; T = 50 °C): 45.8 ± 2.8 Å^2/molecule; Solubility Limit (S/mM) ([5]; at RT): insoluble; solubility ([5]; at T > Tk): ≤ 0.1 mM
13 |  |  |  |  |  |  |  | 31.6 ± 0.9 °C |  | CCCCCCCCOC(=O)[C@H]1O[C@@H](OC)[C@H](O)[C@@H](O)[C@H]1O [MeβGal(C=O)OC8, methyl octyl galacturonate] | C20 ([3]; T = 40 °C): 1.2 mM; pC20 ([3]; T = 40 °C): 2.9; ΔGads ([3]; T = 40 °C): -7.4 kcal/mol; ΔGmic ([3]; T = 40 °C): -5.0 kcal/mol; CMC ([3]; T = 40 °C (T > Tk)): 6.9 ± 0.4 mM; γcmc ([3]; T = 40 °C (T > Tk)): 29.4 ± 0.36 mN/m; Amin ([3]; T = 40 °C): 42.9 ± 3.9 Å^2/molecule; Solubility Limit (S/mM) ([5]; at RT): insoluble; Solubility Limit (S/mM) ([5]; at T > Tk): high solubility limits; solubility ([5]; at T > Tk): > 100 mM
14 | 0.7 mM | 3.1 | -7.3 kcal/mol | -4.6 kcal/mol | 8.5 ± 0.5 mM | 28.3 ± 0.35 mN/m | 42.7 ± 2.4 Å^2/molecule | <4 °C | > 100 mM | CCCCCCCC(=O)OC[C@H]1O[C@@H](OC)[C@H](O)[C@@H](O)[C@H]1O [MeβGalO(C=O)C7, Methyl 6-O-octanoyl-β-D-galactopyranoside] | Solubility Limit (S/mM) ([5]; at T > Tk): high solubility limits
